Legend:
HU protein [1] = target: T1, HU protein (Bacillus subtilis, UniProt P08821); assay: Nuclear magnetism Titration (HSQC) binding experiment; conditions: 10 μM HU protein, 1 μL of 100 mM Belinostat stock added
Description: (§1) At the molecular level, a binding effect of Belinostat with the HU protein was verified by nuclear magnetism Titration and waterLOGSY experiments. The isoleucine (Ile) at the 71^St site in the HU protein was mutated into alanine (Ala) to obtain a corresponding mutant (hereinafter referred to as “HU^171A protein”), then the waterLOGSY experiment was repeated, and the binding effect of the drug and the mutated HU^171A protein disappeared, proving that a key binding site of the two was the amino acid at the 71st site in the HU protein. Specific experimental steps and experimental results are as follows:
An appropriate amount of Belinostat (MedChemExpress Company) was weighed and dissolved in DMSO-d6 (Solarbio Science & Technology Co., Ltd.) to obtain a stock solution of Belinostat with a concentration of 100 mM for use. 480 μl of solution containing 10 μM of HU protein was taken, 20 μL of D2O was added and mixed evenly, the obtained solution was transferred into a nuclear magnetic resonance tube, and an HSQC spectrogram of the HU protein was recorded on a Brooke 600 MHz nuclear magnetic resonance spectrometer (Avance III). 1 μL of Belinostat stock solution was taken, added into the foregoing nuclear magnetic resonance tube and mixed evenly, and then an HSQC spectrogram was recorded again.

[2] = system: Bacillus subtilis (ATCC 23857 strain); assay: Growth curve of Bacillus subtilis (OD600); type: cell-based; conditions: 24 hours
Protocol: (§2) Before the experiment, an appropriate amount of Belinostat was weighed and dissolved in DMSO to obtain a mother liquid with a concentration of 100 mM. The mother liquid was diluted with an LB medium for use. Bacillus subtilis used in this embodiment was ATCC 23857 strain, and Staphylococcus aureus was methicillin-resistant Staphylococcus aureus ATCC BAA-1761 strain.
The experiment was performed on a 96-well plate, four groups of drug treated groups and one blank control group (that is, the Control group) were set, and each group had three repeat wells. A bacterial solution of Bacillus subtilis (ATCC 23857 strain) cultured in an LB medium was diluted to 5×10^5 CFU/mL with an LB medium, 15 wells were selected in the middle of the 96-well plate, 100 μL of diluted bacterial solution was added to each well, and then 100 μL of Belinostat solution diluted with the LB medium was added, so that the final drug concentrations in the four drug treated groups were 100 μM, 200 μM, 400 μM, and 500 μM, respectively. DMSO and the LB medium were added to the blank control group, so that the final concentration of the DMSO was 0.5% and a volume of a reaction system was consistent with that of each drug treated group. Shaking culture was performed at 37° C. for 24 hours.
Absorbance at 600 nm was used as an index of a bacterial concentration in the culture solution for determining once every 3 hours. Finally, with OD600 as a vertical coordinate and time as a horizontal coordinate, a bacterial growth curve was drawn.

Bacillus subtilis [3] = assay: Transmission electron microscope observation of Bacillus subtilis; type: cell-based; conditions: 500 μM, 4 hours
Protocol: as §2
(§3) A bacterial solution of Bacillus subtilis cultured in an LB medium was diluted to 5×10^5 CFU/mL with the LB medium, 2.5 mL of diluted bacterial solution was taken and added to a 15 mL centrifuge tube, and then 2.5 mL of Belinostat solution diluted with the LB medium was added, so that the final drug concentration was 500 μM. 25 μL of DMSO and an appropriate amount of LB medium were added to the blank control group (the Control group) to ensure that a volume of a reaction system was consistent with that of the drug treated group (the Treated group). Three replicate tubes were set in each group. Shaking culture was performed at 37° C. for 4 hours, and bacteria were collected by centrifugation. […]

[4] = Mouse superficial skin injury infection model, wound healing; type: in vivo, BALB/c mice; conditions: mice, low-concentration group 0.1 μM vs high-concentration group 100 μM and fusidic acid group
Protocol: (§4) Medical tape; 3% chloral hydrate; normal saline; 0.1 μM Belinostat and 100 μM Belinostat (with solvents being 10% glycerin); a commercially available fusidic acid ointment (2% drug content); an LB plate; an independent air supply cage for mice; surgical scissors; tweezers; and a hair removal device.
(§5) 20 female BALB/c mice aged 6-8 weeks were kept in the independent air supply cage.
Back skin of 6-8 week-old female BALB/c mice was depilated with a depilatory paste before modeling, and an exposed skin region with a size of about 1 cm^2 was formed. On the day of modeling, the mice were anesthetized by intraperitoneal injection of 3% chloral hydrate at 10 mL/kg. A same operator pasted the medical adhesive tape to the depilated skin of the mice with basically a same strength, and then tore the medical adhesive tape off. […]
The mice were randomly divided into four groups, which were a blank control (control) group, a low-concentration X group (low-concentration group, with a specific concentration of 0.1 μM), a high-concentration X group (high-concentration group, with a specific concentration of 100 μM), and a fusidic acid group (fusidic acid group, that is, a positive control group), with five mice in each group. All the mice of the blank control group were killed the day before the start of treatment to quantify an amount of bacterial inoculation. […]

[5] = system: Staphylococcus aureus (ATCC BAA-1761 strain); assay: DAPI staining of Staphylococcus aureus; type: cell-based; conditions: 500 μM, 4 hours, methicillin-resistant strain
Protocol: as §2
(§6) The experiments were performed in EP tubes, and one drug treated group and one blank control group were set. A bacterial solution of Bacillus subtilis cultured in an LB medium was diluted to 5×10^5 CFU/mL with the LB medium, 100 μL of diluted bacterial solution was taken and added to a 1.5 mL EP tube, and then 100 μL of Belinostat solution diluted with the LB medium was added, so that the final drug concentration was 500 μM. DMSO and the LB medium were added to the blank control group, so that the final concentration of the DMSO was 0.5% and a volume of a reaction system was consistent with that of the drug treated group. Three replicate tube were set in each group, and shaking culture was performed at 37° C. for 4 hours. […]

Staphylococcus aureus = assay: Transmission electron microscope observation of Staphylococcus aureus; type: cell-based; conditions: 500 μM, 4 hours
Protocol: as §2, §3

HU protein [6] = target: T1, HU protein; assay: waterLOGSY 1D NMR binding experiment, HU protein; conditions: 10 μM protein, pH 6.5 buffer
Description: as §1
(§7) 1 μL of the foregoing Belinostat stock solution was taken, 479 μL of buffer solution (300 mM of NaCl and 50 mM of K2HPO4, with the pH of 6.5) and 20 μL of D2O were added and mixed evenly, and then the obtained solution was transferred to the nuclear magnetic resonance tube for use. In addition, two parts of 1 μL of the foregoing Belinostat stock solution were taken, an appropriate amount of HU protein and HU^171A protein were added respectively, then an appropriate amount of buffer solution and 20 μL of D2O were added respectively, so that the total volume of the solution was 500 μL, and the final protein concentration was 10 μm. After uniform mixing, the obtained solutions were transferred to nuclear magnetic resonance tubes for use. […]

Bacillus subtilis [7] = assay: DAPI staining of Bacillus subtilis; type: cell-based; conditions: 500 μM, 4 hours
Protocol: as §2, §6

HU^171A protein = HU^171A protein (Bacillus subtilis, UniProt P08821, I71A); assay: waterLOGSY 1D NMR binding experiment, mutated HU protein; conditions: 10 μM protein, pH 6.5 buffer
Sequence of HU^171A protein (P08821 whole entry I71A): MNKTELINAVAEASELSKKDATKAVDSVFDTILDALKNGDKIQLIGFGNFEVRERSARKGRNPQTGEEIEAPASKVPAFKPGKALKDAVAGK
Description: as §1, §7

[8] = system: Staphylococcus aureus (ATCC BAA-1761 strain); assay: Mouse superficial skin injury infection model, viable bacterial count on infected wound; type: in vivo; conditions: mice; for bacterial count in skin lesion site compared with blank control group: topical twice a day for 3 days, p.value=0.0006
Protocol: as §4, §5
Preparation of a bacterial solution: Staphylococcus aureus (ATCC BAA-1761 strain), preserved by the Laboratory Department of the First Affiliated Hospital of Xi′an Jiaotong University. Before the experiment, Staphylococcus aureus was inoculated in 5 mL of LB and placed in an incubator at 37° C. for shaking culture, and when the amount of bacteria was about 10^7 CFU/mL, the bacteria were taken out for use.
Back skin of 6-8 week-old female BALB/c mice was depilated with a depilatory paste before modeling, and an exposed skin region with a size of about 1 cm^2 was formed. On the day of modeling, the mice were anesthetized by intraperitoneal injection of 3% chloral hydrate at 10 mL/kg. A same operator pasted the medical adhesive tape to the depilated skin of the mice with basically a same strength, and then tore the medical adhesive tape off. The foregoing paste-tear operation was repeated many times to remove stratum corneum, and the adhesive tape needed to be replaced during each paste-tear process. When the skin of the mice became red and shiny, but there was no regular bleeding, the paste was stopped. The foregoing 10 μL of bacterial suspension was evenly applied to the damaged skin of the mice, and the infection lasted for 24 hours to establish the model of superficial skin injury of the mice.
The mice were randomly divided into four groups, which were a blank control (control) group, a low-concentration X group (low-concentration group, with a specific concentration of 0.1 μM), a high-concentration X group (high-concentration group, with a specific concentration of 100 μM), and a fusidic acid group (fusidic acid group, that is, a positive control group), with five mice in each group. All the mice of the blank control group were killed the day before the start of treatment to quantify an amount of bacterial inoculation. The three drug groups were administered twice a day (8:00 am. and 8:00 p.m. respectively) for three consecutive days after the infection. Dosages of the low-concentration X group and the high-concentration X group were 50 μL/time for each mouse, and a dosage of the fusidic acid group was 0.1 g/time for each mouse. […] After the experiment, the mice were killed.
After the mice were killed, a wound of about 1 cm^2 was excised immediately, and put into a tissue homogenizing tube with 1 mL of normal saline and magnetic beads for tissue homogenization. 100 μL of tissue homogenate was diluted with normal saline for 10^1, 10^2, 10^3, and 10^4 times gradient, and then 100 μL of each diluted solution was evenly spread on an LB plate. After inverted overnight culture for 12-24 hours, colonies were counted and the count was converted into bacterial content (CFU/cm^2) per square centimeter of tissue.

T1 sequence (P08821 whole entry): as the sequence (P08821 whole entry I71A) above, with A71I counted along it

| SMILES | binding to HU protein (peak migration and peak intensity change in HSQC spectrum) (HU protein [1]) | effect on growth of Bacillus subtilis (absorbance at 600 nm vs blank control) ([2]; 200 μM) | effect on growth of Bacillus subtilis ([2]; 400 μM) | effect on growth of Bacillus subtilis ([2]; 500 μM) | effect on growth of Bacillus subtilis ([2]; different concentrations (100, 200, 400, 500 μM), 37° C.) | transmission electron microscope, cell length and nucleoid regions (Bacillus subtilis [3]) | wound healing speed [4] | DAPI staining, nucleus region morphology [5] | transmission electron microscope, nucleoid regions (Staphylococcus aureus) | binding to HU protein (waterLOGSY peaks reversed into negative peaks) (HU protein [6]) | DAPI staining, nucleus region morphology (Bacillus subtilis [7]) | binding to mutated HU^171A protein (waterLOGSY) (HU^171A protein) | bacterial load at the skin lesion site, two concentrations ([8]; 0.1 μM and 100 μM, 50 μL/time, twice a day, 3 days) | antibacterial ability compared with commercial fusidic acid ([8]; dosage of Belinostat lower than that of fusidic acid) | curative effect compared with fusidic acid ([8]; molar dosages much lower than fusidic acid) | bacterial count in skin lesion site compared with blank control group [8] |
| --- | --- | --- | --- | --- | --- | --- | --- | --- | --- | --- | --- | --- | --- | --- | --- | --- |
| O=C(/C=C/c1cccc(S(=O)(=O)Nc2ccccc2)c1)NO [Belinostat, N-hydroxy-3-(3-[(phenylamino)sulfonyl]phenyl)acrylamide] | can bind to the HU protein | relatively strong inhibitory effect on bacterial growth | almost completely inhibited | almost completely inhibited | inhibitory effect on growth of Bacillus subtilis | increased to different degrees, and nucleoid regions were scattered in many places in cytoplasm | significantly faster | bacterial nucleus region was dispersed | became inconspicuous and showed a loose state | bound to the HU protein | bacterial nucleus region became longer | could not react with the mutated HU protein | same bactericidal effect | equivalent antibacterial ability | better than that of the fusidic acid | significantly reduced |
| CC(=O)O[C@H]1C[C@@]2(C)[C@@H](C[C@@H](O)[C@H]3[C@@]4(C)CC[C@@H](O)[C@@H](C)[C@@H]4CC[C@@]32C)/C1=C(\CCC=C(C)C)C(=O)O [fusidic acid] | – | – | – | – | – | – | – | – | – | – | – | – | – | – | – | significantly reduced |

Source: patent US11826325B2, “Use of Belinostat or pharmaceutically acceptable salt thereof in preparation of drug for treating infection” (priority 2021, dated 2023)
